Tests used:
Assay in all cases: MIC comparison of 1,1- and 1,4-CHDM, 96-well plates
Assay type in all cases: cell-based
Details in all cases: for MIC Day 1: 24 H; for MIC Day 2: 48 H; for MIC Day 3: 72 H
P. aeruginosa = tested on: P. aeruginosa
Protocol: (§1) The antimicrobial activities of 1,4-cyclohexanedimethanol (1,4-CHDM) and 1,1-cyclohexanedimethanol (1,1-CHDM) have been determined. […] MICs were individually calculated for three consecutive days with both 1,1-cyclohexanedimethanol and the 31% cis:69% trans mixture of 1,4-cyclohexanedimethanol. Both compounds were evaluated against a panel of five strains of microorganisms.
(§2) Strains P. aeruginosa, C. albicans, E. coli, A. niger and S. aureus were purchased from the American Type Culture Collection (Manassas, Va.). NUNC flat bottom polystyrene 96 well microtiter plates (NUNC Cat# 269787), and 17×100 mm culture tubes (VWR Cat# 60818-703) were purchased from VWR International, LLC (West Chester, Pa.). Eastman CHDM-D90 and 1,1-CHDM (>99.7% by GC and verified by NMR) were provided by Eastman Chemical Company (Kingsport, Tenn.). All bacterial cultures were grown in BD BBL trypticase soy broth, and all fungal cultures were grown in sabourand dextrose broth purchased from VWR International, LLC (West Chester, Pa.). Absorbance measurements were taken with a TECAN GENios Pro microplate reader.
(§3) A small loopful of inoculum was transferred from a freshly streaked agar plate of each strain to 5 ml of sterile media in a 17×100 mm culture tube. The bacteria were incubated for 20-28 hours and C. albicans for 44-52 hours.
(§4) Stock solutions were prepared for each isomer in the corresponding growth media at a concentration of 5% w/v (1,4-CHDM) or 2.25% w/v (1,1-CHDM). Serial dilutions were prepared with a dilution ratio of 1:1.3333 such that one log range was covered with nine dilutions.
(§5) Two-hundred microliters of each CHDM concentration was transferred into 4 wells of a sterile 96-well plate. Four extra wells of the highest concentration were filled for the uninoculated high-level controls. Eight additional wells were filled with only sterile broth to serve as negative and positive controls. The last well of each CHDM isomer dilution was left uninoculated to serve as controls for background turbidity associated with test compounds. Plates with bacteria or C. albicans were inoculated with 2 μl of seed culture for final concentration of roughly 10^6 CFU/ml for the bacteria and 10^5 CFU/ml for the C. albicans. Plates with A. niger were inoculated with 2 μl of spore suspension prepared above.
(§6) Each plate was covered and incubated at the appropriate temperature and turbidity as a measure of cell density was determined via absorbance measurement at 612 nm using a microplate reader. Measurements were taken at 24, 48 and 72 hours for each plate. The raw data was exported into an Excel spreadsheet and the MIC values were determined and expressed as wt %. The absorbance of each inoculated CHDM well was retrieved by first subtracting out the average reading for each uninoculated well, then by comparison to a positive threshold to determine positive or negative status for growth. The positive threshold was calculated by multiplication of the average absorbance for the inoculated media-only wells by 0.05. The MIC was determined as the lowest test concentration resulting in all three replicate wells displaying values below the positive threshold.

E. coli = tested on: E. coli
Protocol: as §1, §2, §3, §4, §5, §6

C. albicans = tested on: C. albicans
Protocol: as §1, §2, §3, §4, §5, §6

S. aureus = tested on: S. aureus
Protocol: as §1, §2, §3, §4, §5, §6

A. niger = tested on: A. niger
Protocol: as §1, §2
A. niger was cultured on sabourand dextrose agar plates until a heavy concentration of black spores were visibly apparent. Spores were harvested from the plate by suspension in 3 ml of sabourand dextrose broth utilizing a sterile plastic spreader and sterile transfer pipette.
as §4, §5, §6

SMILES	MIC Day 1 (P. aeruginosa) [wt %]	MIC Day 2 (P. aeruginosa) [wt %]	MIC Day 3 (P. aeruginosa) [wt %]	MIC Day 1 (E. coli) [wt %]	MIC Day 2 (E. coli) [wt %]	MIC Day 3 (E. coli) [wt %]	MIC Day 1 (C. albicans) [wt %]	MIC Day 2 (C. albicans) [wt %]	MIC Day 3 (C. albicans) [wt %]	MIC Day 1 (S. aureus) [wt %]	MIC Day 2 (S. aureus) [wt %]	MIC Day 3 (S. aureus) [wt %]	MIC Day 1 (A. niger) [wt %]	MIC Day 2 (A. niger) [wt %]	MIC Day 3 (A. niger) [wt %]
OCC1CCC(CO)CC1 (stereo not drawn) [1,4 CHDM]	1.58	1.58	2.11	1.58	1.58	1.58	3.75	4.99	>5.0	3.75	3.75	3.75	>5.0	3.75	3.75
OCC1(CO)CCCCC1 [1,1 CHDM]	1.26	1.26	1.26	1.26	1.26	1.26	2.25	2.25	2.25	2.25	2.25	2.25	>2.25	>2.25	>2.25

— patent US20110028566A1, “COMPOSITIONS AND PRODUCTS CONTAINING CYCLOALIPHATIC DIOL ANTIMICROBIAL AGENTS AND METHODS OF USING THE COMPOSITIONS AND PRODUCTS” (EASTMAN CHEMICAL COMPANY, priority 2009, published 2011)
